Publication PMC10004634 (PLOS ONE, 2023)

What was measured:
Experiment in all cases: biochemical
Parameters in all cases: KINOMEscan scanMAX competition binding, DNA-tagged kinases, qPCR read-out, percent control at 300 nM
EGFR(G719S) = EGFR(G719S) (Homo sapiens, UniProt P00533, G719S); settings: read-out: Percent control / Tirabrutinib
EGFR(G719C) = EGFR(G719C) (Homo sapiens, UniProt P00533, G719C); settings: read-out: Percent control / Tirabrutinib
YES = target: T1, YES (Homo sapiens, UniProt P07947); settings: read-out: Percent control / Tirabrutinib
T1 construct: gene YES1

MARK1 = MARK1 (Homo sapiens, UniProt Q9P0L2); settings: read-out: Percent control / Tirabrutinib
CAMK2A = CAMK2A (Homo sapiens, UniProt Q9UQM7); settings: read-out: Percent control / Ibrutinib
CDKL5 = CDKL5 (Homo sapiens, UniProt O76039); settings: read-out: Percent control / Zanubrutinib
TRKC = target: T2, TRKC (Homo sapiens, UniProt Q16288); settings: read-out: Percent control / Zanubrutinib
T2 construct: gene NTRK3

MYLK2 = MYLK2 (Homo sapiens, UniProt Q9H1R3); settings: read-out: Percent control / Zanubrutinib
PIM3 = PIM3 (Homo sapiens, UniProt Q86V86); settings: read-out: Percent control / Zanubrutinib
PLK1 = PLK1 (Homo sapiens, UniProt P53350); settings: read-out: Percent control / Zanubrutinib
PLK2 = PLK2 (Homo sapiens, UniProt Q9NYY3); settings: read-out: Percent control / Zanubrutinib
VRK2 = VRK2 (Homo sapiens, UniProt Q86Y07); settings: read-out: Percent control / Zanubrutinib
RIOK2 = RIOK2 (Homo sapiens, UniProt Q9BVS4); settings: read-out: Percent control / Zanubrutinib
MST1 = target: T3, MST1 (Homo sapiens, UniProt Q13043); settings: read-out: Percent control / Zanubrutinib
T3 construct: gene STK4

CSNK1A1 = CSNK1A1 (Homo sapiens, UniProt P48729); settings: read-out: Percent control / Acalabrutinib
MAP3K3 = MAP3K3 (Homo sapiens, UniProt Q99759); settings: read-out: Percent control / Acalabrutinib
ABL1-nonphosphorylated = target: T4, ABL1-nonphosphorylated (Homo sapiens, UniProt P00519); settings: read-out: Percent control / Acalabrutinib
T4 construct: nonphosphorylated

CDK9 = CDK9 (Homo sapiens, UniProt P50750); settings: read-out: Percent control / Acalabrutinib
NDR2 = target: T5, NDR2 (Homo sapiens, UniProt Q9Y2H1); settings: read-out: Percent control / Acalabrutinib
T5 construct: gene STK38L

p38-gamma = target: T6, p38-gamma (Homo sapiens, UniProt P53778); settings: read-out: Percent control / Acalabrutinib
T6 construct: gene MAPK12

[1] = target: T7, ABL1(Q252H)-nonphosphorylated (Homo sapiens, UniProt P00519, Q252H); settings: read-out: Percent control / Acalabrutinib
T7 construct: nonphosphorylated

EIF2AK1 = EIF2AK1 (Homo sapiens, UniProt Q9BQI3); settings: read-out: Percent control / Acalabrutinib
EPHA1 = EPHA1 (Homo sapiens, UniProt P21709); settings: read-out: Percent control / Acalabrutinib
EPHA1, sequence (P21709 whole entry): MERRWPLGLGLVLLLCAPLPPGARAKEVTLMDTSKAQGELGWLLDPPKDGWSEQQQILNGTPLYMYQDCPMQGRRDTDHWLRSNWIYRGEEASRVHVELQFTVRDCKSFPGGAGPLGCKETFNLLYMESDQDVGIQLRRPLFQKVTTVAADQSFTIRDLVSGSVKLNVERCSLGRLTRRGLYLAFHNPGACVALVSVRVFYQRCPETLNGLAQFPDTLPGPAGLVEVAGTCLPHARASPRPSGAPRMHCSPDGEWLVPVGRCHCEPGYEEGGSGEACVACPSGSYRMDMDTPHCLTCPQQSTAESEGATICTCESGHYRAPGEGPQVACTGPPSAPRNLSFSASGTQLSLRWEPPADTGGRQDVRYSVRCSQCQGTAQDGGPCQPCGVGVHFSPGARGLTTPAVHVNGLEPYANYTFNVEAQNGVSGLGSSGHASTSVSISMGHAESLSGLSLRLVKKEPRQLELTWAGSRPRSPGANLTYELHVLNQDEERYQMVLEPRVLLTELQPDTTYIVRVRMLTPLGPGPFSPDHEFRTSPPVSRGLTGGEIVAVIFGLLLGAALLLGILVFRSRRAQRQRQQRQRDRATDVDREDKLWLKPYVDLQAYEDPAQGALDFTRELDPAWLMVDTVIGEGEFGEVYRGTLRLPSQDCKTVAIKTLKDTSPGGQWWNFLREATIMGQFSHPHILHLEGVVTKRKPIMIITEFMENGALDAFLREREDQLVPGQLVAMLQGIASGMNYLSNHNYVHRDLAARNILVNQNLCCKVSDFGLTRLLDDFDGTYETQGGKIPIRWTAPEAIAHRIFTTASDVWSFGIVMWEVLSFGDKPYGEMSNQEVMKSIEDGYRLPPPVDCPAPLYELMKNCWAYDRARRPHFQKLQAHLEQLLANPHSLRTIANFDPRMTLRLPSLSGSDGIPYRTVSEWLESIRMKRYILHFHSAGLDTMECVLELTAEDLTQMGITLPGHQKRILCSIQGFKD

T5 sequence (Q9Y2H1 whole entry): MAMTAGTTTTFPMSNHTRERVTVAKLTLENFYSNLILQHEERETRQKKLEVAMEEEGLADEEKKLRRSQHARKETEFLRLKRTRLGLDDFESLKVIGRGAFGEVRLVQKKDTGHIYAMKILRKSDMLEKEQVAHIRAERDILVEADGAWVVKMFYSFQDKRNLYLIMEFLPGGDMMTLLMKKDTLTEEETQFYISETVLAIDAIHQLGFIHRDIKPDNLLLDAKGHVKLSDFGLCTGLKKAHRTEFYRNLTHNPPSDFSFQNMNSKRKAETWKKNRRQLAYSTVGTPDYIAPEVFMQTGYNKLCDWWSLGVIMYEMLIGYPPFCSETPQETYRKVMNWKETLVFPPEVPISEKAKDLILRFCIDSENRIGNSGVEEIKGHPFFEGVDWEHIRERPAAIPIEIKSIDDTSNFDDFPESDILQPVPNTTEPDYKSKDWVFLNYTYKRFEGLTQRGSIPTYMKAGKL
VRK2, sequence (Q86Y07 whole entry): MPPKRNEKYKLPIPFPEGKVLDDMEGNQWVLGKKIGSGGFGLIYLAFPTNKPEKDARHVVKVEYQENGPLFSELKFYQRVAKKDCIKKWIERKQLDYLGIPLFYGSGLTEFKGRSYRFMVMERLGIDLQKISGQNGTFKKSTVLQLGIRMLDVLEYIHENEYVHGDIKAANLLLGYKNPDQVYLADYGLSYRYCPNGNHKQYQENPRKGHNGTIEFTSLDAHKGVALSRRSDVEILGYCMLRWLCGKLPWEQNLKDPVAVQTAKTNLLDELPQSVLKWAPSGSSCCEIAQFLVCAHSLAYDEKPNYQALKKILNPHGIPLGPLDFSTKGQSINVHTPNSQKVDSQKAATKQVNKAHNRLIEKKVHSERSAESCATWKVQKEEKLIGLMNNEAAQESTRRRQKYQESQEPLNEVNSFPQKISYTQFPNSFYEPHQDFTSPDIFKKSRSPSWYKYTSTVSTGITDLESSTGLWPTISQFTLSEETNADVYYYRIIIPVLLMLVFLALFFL
PLK1, sequence (P53350 whole entry): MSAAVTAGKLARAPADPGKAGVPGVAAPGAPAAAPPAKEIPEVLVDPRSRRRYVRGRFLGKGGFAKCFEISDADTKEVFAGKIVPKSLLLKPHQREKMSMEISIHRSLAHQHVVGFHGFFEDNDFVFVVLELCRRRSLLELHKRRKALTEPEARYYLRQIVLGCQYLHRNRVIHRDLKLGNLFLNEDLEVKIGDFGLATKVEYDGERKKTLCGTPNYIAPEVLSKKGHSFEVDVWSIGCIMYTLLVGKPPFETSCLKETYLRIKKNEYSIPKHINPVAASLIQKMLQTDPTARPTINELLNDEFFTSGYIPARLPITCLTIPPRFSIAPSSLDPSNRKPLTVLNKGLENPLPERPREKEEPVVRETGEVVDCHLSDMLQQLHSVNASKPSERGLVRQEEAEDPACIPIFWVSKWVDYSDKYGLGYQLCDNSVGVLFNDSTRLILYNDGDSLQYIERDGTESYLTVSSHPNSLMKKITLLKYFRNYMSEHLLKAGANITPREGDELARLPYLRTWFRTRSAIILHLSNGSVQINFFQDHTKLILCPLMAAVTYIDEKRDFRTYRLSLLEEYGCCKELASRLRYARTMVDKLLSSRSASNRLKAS
EIF2AK1, sequence (Q9BQI3 whole entry): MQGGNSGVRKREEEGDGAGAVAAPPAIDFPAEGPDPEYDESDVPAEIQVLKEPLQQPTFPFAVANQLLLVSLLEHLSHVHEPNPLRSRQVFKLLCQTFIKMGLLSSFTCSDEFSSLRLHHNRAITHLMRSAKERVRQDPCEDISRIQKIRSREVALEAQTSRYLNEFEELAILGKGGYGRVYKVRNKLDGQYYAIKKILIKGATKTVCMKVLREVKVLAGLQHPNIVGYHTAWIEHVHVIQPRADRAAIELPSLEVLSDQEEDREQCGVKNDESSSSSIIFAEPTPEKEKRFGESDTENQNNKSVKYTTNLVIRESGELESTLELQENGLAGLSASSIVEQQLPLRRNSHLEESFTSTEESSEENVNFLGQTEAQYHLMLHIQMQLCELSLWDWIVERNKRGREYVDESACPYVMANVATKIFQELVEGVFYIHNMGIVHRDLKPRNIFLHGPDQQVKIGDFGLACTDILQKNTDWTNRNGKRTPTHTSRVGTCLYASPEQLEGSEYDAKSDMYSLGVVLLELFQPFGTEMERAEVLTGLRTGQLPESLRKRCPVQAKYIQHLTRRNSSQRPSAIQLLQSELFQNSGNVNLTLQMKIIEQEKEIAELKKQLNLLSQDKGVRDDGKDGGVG
PLK2, sequence (Q9NYY3 whole entry): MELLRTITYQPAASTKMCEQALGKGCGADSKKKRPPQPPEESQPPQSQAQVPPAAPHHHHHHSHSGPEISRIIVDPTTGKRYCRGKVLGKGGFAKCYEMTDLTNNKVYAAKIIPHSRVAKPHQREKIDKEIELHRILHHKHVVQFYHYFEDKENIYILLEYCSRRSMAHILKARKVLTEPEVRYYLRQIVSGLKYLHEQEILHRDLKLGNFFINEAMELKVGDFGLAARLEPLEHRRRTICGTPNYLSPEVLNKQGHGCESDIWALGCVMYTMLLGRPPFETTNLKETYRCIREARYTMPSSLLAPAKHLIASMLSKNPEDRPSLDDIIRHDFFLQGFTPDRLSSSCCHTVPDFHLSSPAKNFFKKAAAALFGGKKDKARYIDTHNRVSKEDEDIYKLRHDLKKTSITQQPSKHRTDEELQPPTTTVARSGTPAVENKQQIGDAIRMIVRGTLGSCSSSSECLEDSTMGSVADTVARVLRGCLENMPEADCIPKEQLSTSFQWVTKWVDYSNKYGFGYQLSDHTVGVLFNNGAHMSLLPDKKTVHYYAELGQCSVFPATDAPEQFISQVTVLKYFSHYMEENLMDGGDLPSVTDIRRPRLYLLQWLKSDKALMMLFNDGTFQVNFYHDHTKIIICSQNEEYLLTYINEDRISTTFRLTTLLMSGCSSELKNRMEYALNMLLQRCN
MAP3K3, sequence (Q99759 whole entry): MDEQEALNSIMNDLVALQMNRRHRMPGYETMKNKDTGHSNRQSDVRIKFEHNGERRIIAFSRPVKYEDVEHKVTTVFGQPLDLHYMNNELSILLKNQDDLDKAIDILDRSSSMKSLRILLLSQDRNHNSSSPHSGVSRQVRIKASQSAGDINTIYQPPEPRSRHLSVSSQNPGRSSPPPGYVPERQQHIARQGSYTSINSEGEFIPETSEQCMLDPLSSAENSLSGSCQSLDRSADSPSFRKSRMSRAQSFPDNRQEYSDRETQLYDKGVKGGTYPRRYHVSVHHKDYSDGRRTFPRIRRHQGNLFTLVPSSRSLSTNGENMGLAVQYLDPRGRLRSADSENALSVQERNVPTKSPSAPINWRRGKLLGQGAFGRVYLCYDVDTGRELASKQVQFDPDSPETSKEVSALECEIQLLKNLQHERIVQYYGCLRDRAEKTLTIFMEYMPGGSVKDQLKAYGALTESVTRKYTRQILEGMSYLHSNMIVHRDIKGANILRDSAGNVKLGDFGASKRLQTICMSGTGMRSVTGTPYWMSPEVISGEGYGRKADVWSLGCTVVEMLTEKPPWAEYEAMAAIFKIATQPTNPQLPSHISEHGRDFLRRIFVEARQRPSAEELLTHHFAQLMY

CC#CC(=O)N1CC[C@@H](n2c(=O)n(-c3ccc(Oc4ccccc4)cc3)c3c(N)ncnc32)C1 [Tirabrutinib]
remaining binding at 0.3 µM (EGFR(G719S)): 85%
remaining binding at 0.3 µM (EGFR(G719C)): 54%
remaining binding at 0.3 µM (YES): 71%
remaining binding at 0.3 µM (MARK1): 88%

C=CC(=O)N1CCC[C@@H](n2nc(-c3ccc(Oc4ccccc4)cc3)c3c(N)ncnc32)C1 [Ibrutinib]
remaining binding at 0.3 µM (CAMK2A): 82%

C=CC(=O)N1CCC([C@@H]2CCNc3c(C(N)=O)c(-c4ccc(Oc5ccccc5)cc4)nn32)CC1 [Zanubrutinib]
remaining binding at 0.3 µM (CDKL5): 100%
remaining binding at 0.3 µM (TRKC): 97%
remaining binding at 0.3 µM (MYLK2): 96%
remaining binding at 0.3 µM (PIM3): 84%
remaining binding at 0.3 µM (PLK1): 100%
remaining binding at 0.3 µM (PLK2): 100%
remaining binding at 0.3 µM (VRK2): 97%
remaining binding at 0.3 µM (RIOK2): 94%
remaining binding at 0.3 µM (MST1): 90%

CC#CC(=O)N1CCC[C@H]1c1nc(-c2ccc(C(=O)Nc3ccccn3)cc2)c2c(N)nccn12 [Acalabrutinib]
remaining binding at 0.3 µM (CSNK1A1): 76%
remaining binding at 0.3 µM (MAP3K3): 86%
remaining binding at 0.3 µM (ABL1-nonphosphorylated): 87%
remaining binding at 0.3 µM (CDK9): 94%
remaining binding at 0.3 µM (NDR2): 99%
remaining binding at 0.3 µM (p38-gamma): 75%
remaining binding at 0.3 µM [1]: 84%
remaining binding at 0.3 µM (EIF2AK1): 85%
remaining binding at 0.3 µM (EPHA1): 85%
